Results taken from paper PMC10151334, “Anti-proliferative potential and oxidative reactivity of thermo-oxidative degradation products of stigmasterol and stigmasteryl esters for human intestinal cells” (Scientific Reports, 2023).

How the values were obtained:
[1] = test system: intracellular ROS in CCD 841 CoN cells; experiment: Intracellular ROS measurement (DCFH-DA, flow cytometry); assay type: cell-based, human; conditions: up to 40 μg/mL, 24 h
Procedure: CCD 841 CoN cells were grown in 6-well plates at an initial cell density of 2 × 10^4 cells/cm^2 for 24 h under standard culture conditions. The cell cultures were treated for 24 h with the analyzed compounds at a 40 μg/mL concentration. After treatment, the cells were harvested by trypsinization, washed with Hank's Balanced Salt Solution, and incubated with 10 μM 2′,7′-Dichlorodihydrofluorescein diacetate (DCFH-DA) (Life Technologies, Carlsbad, CA, USA) at 37 °C for 30 min. Intracellular DCF fluorescence (λex/em = 488/530 nm) was examined by flow cytometry (Amnis™ FlowSight™ flow cytometer).

S. typhimurium TA98 = experiment: Bacterial reverse mutation assay (Ames test), strain TA98; conditions: 40 μg/mL, with microsomal fraction (+ S9)
Procedure: (§1) Potential mutagenicity or pro-mutagenicity of non-heated and heated ST, ST-LA, and ST-OA was determined using the bacterial reverse mutation assay (Ames test) with Salmonella enterica subsp. enterica ser. typhimurium tester strains TA98, TA100, and TA102, which were obtained from the Polish Collection of Microorganisms of the Institute of Immunology and Experimental Therapy of the Polish Academy of Sciences in Wroclaw.
(§2) Mutagenicity experiments were performed in the liquid pre-incubation assay, without and with metabolic activation by supplying Aroclor 1254-induced rat liver microsomal fraction (S9, Sigma-Aldrich) with NADP and cofactors for NADPH-supported oxidation, according to the procedure described by Mortelmans and Zeiger[39]. Briefly, reaction mixtures, consisting of 12-h bacterial culture, non-heated and heated compound (ST, ST-LA, ST-OA) at a concentration of 40 μg, 0.2 M phosphate buffer (pH 7.4), and alternatively S9 activating mixture, were pre-incubated at 37 °C for 20 min. […] The mutagen, 2-aminoanthracene (5 μg) (Sigma-Aldrich), was a positive control in pro-mutagenicity experiments. After pre-incubation, the reaction mixtures were added to the top agar supplemented with traces of histidine and biotin and poured onto the plates covered with minimum glucose agar. The cultures were incubated for 48 h at 37 °C, and the number of revertants (His+) colonies was counted manually.
(§3) Compounds with MI ≥ 2 can be recognized as potentially mutagenic.

CCD 841 CoN cells [2] = test system: CCD 841 CoN cells; design: method as in PMID 31883991; conditions: colon mucosa CCD 841 CoN cells, MTT test; cited from earlier work
CCD 841 CoN cells [3] = experiment: DNA damage detection, comet assay (SCGE); assay type: cell-based, human; conditions: 40 μg/mL, 48 h
Procedure: The cells were grown at 6-well plates at the established density and standard culture conditions and exposed to the non-heated and heated ST, ST-OA, and ST-LA for 48 h. The non-treated cells and cells treated with H2O2 (100 μM, 30 min) to induce oxidative DNA damage constituted the negative and positive controls, respectively. After treatment, cells were analyzed for DNA damage using a single cell gel electrophoresis (SCGE) called comet assay, described in detail previously. Briefly, harvested cells suspended in low melting point agarose were put onto microscope slides pre-coated with normal melting point agarose and subjected sequentially to lysis, alkaline electrophoresis (pH > 13), and neutralization ([…]). The cells were stained with SYBRGold (Molecular Probes), viewed under a fluorescence microscope (Axiovert 200, Zeiss, Carl Zeiss, Gottingen, Germany), and analyzed using CometScore™ software (TriTek Corp., Sumerduck, VA, USA). At least 100 cells were analyzed on a microscope slide; 300 cells were considered for DNA damage detection in one sample. Data were expressed as the mean percentage of DNA content in the comet tail. […] Based on the comets' categorization, the total comet score (TCS) was calculated according to the formula: TCS = 0(n) + 1(n) + 2(n) + 3(n) + 4(n), where “n” is the number of cells in each comet class (0–4)[45].

[4] = Thermo-oxidative treatment at 180 °C for 8 h, degradation of the compound; assay type: physicochemical; conditions: heated at 180 °C for 8 h under oxygen atmosphere
Procedure: ST, ST-OA, and ST-LA (50 mg each) were placed separately in glass vials and heated at 180 °C for 8 h under an oxygen atmosphere. After thermo-oxidative treatment, the tested compounds were stored at − 20 °C until chemical and biological analyses. The non-heated and heated ST and its esters were analyzed to detect degradation products and oxyderivatives. Analytical methods were described in the article published previously.

S. typhimurium TA102 = experiment: Bacterial reverse mutation assay (Ames test), strain TA102; conditions: 40 μg/mL, regardless of metabolic activation (+/− S9)
Procedure: as §1, §2, §3

CC[C@H](/C=C/[C@@H](C)[C@H]1CC[C@H]2[C@@H]3CC=C4C[C@@H](O)CC[C@]4(C)[C@H]3CC[C@]12C)C(C)C [ST, Stigmasterol]
intracellular ROS production / oxidative reactivity [1]: did not induce enhanced intracellular ROS production | increase in number of revertant colonies TA98 (S. typhimurium TA98): 1.6 fold | half-maximal effective concentration (EC50), 50% decrease in cell viability (CCD 841 CoN cells [2]): 2.95 µg/mL | comets category 2 (medium DNA damage, 25 to 45% DNA in tail), share of cell population (CCD 841 CoN cells [3]): 3.5% | total comet score (TCS), comet class distribution vs control (CCD 841 CoN cells [3]): no significant differences | Sterol moiety depletion (%) [4]: 80.4 ± 13.5% | effect on TA102 revertants (S. typhimurium TA102): did not affect the number of TA102 revertants
